The source of these data is patent US12648942B2, “Method for treating acute ischemic stroke” (Lumosa Therapeutics Co., LTD, priority 2021, dated 2026).

Experiment [1] deals with embolic occlusion of the middle cerebral artery in male Sprague-Dawley rats. Briefly: Embolic stroke model in SD rat (Examples 1, 4-6). Conditions: for Mean neurological deficit scores (NDS): 24 hours after drug administration. Type of experiment: in vivo, Sprague-Dawley rat. On the procedure:
A 10% chloral hydrate solution (400 mg/kg) was injected intraperitoneally into SD male rats (240-320 g) for anesthesia. A vertical incision of about 2 cm in length was made on the right side near the center of the neck, and the right common carotid artery (CCA), external carotid artery (ECA) and internal carotid artery (ICA) were separated along the margin of the inner side of sternocleidomastoid muscles. The incision at the internal carotid artery and the proximal end of the common carotid artery were clipped respectively with noninvasive arterial clips. A small incision was made on the external carotid artery, and the distal end of the external carotid artery was ligated. The arterial clip at the proximal end of the common carotid artery was released, and 10 μl blood was drawn. After blood was drawn, the proximal end of the common carotid artery was again clipped with a noninvasive arterial clip. The 10 μl blood drawn was placed in a 1 mL EP vial and kept at RT for 30 min to allow the coagulation of blood and then transferred into a −20° C. refrigerator for 1 hour to allow the formation of solid coagulation. 1 hour later, the blood clots were taken out, 1 mL normal saline was added therein, and then the blood clots were broken into relatively uniform microthrombus by a steel spatula. The microthrombus suspension was then transferred into a 1 mL injector for use. When the clip on the internal carotid artery of the rat was released, the 1 mL thrombus suspension in the injector was slowly injected from the external carotid artery of the rat to its proximal end, and then was injected into the brain of the rat through the internal carotid artery. Subsequently, the proximal end of the external carotid artery was ligated, the arterial clips on the internal carotid artery and the common carotid artery were released, and blood flow was restored. The common jugular vein was separated, and then injected with normal saline solution, or tested compound. The vein was ligated. 3 drops of penicillin was dropped on the wound. The wound was sewed, and animals were waited for awake.
24 hours after the rats were awake, the degree of damage in neural function was evaluated by the Zealonga method. A score of 0 indicated no sign of loss in neural function, 1 indicated the front limbs on the undamaged side could not stretch out, 2 indicated walking toward the undamaged side, 3 indicated tail-chasing walking in circles toward the undamaged side, 4 indicated involuntary walking with disturbance of consciousness, and 5 indicated death. The evaluation results were statistically analyzed and subjected to t-test.
After the rats were awake for 24 hours and assessed for their degree of damage in neural function by Zealonga method, they were anesthetized with urethane followed by immediate decapitation and removal of the brain. Brain tissues were kept in a −20° C. refrigerator for 2 hours, and coronal sections of about 2 mm were successively sliced from the prefrontal end for a total of 5 sections and then placed into a 2% TTC solution to incubate without light at 37° C. for 30 min. The color change in brain sections was observed: normal brain tissues were stained red by TTC, while ischemic brain tissues appeared in white. Photographs were taken by using a digital camera and processed with image statistics software, and the volume of infarction in brain tissues and the area of normal brain tissues in the coronal sections were calculated. The ratio of the cerebral infarction volume of each group was statistically calculated and subject to t-test.
An embolic occlusion of the middle cerebral artery in male Sprague-Dawley rats was induced by introducing blood clots into the carotid artery. Rats were treated with vehicle (saline), rtPA (10 mg/kg, IV bolus injection), or DC009 (0.007 mg/kg, IV bolus injection) after 3 hours of stroke onset (n=12-13 per treatment group). […]

Experiment [2] relates to photochemically induced thrombosis of the middle cerebral artery in rats. In words: Photochemically induced thrombotic (PIT) stroke model in rats (Examples 3, 10). Type of experiment: in vivo, rat. Conditions: 24 hours after PIT surgery. The method, then:
Under anesthesia, the left middle cerebral artery (MCA) was occluded by a thrombus generated at the site of photoirradiation. The left MCA was exposed via a transorbital approach. A vertical incision was made between the left orbital and the external auditory canal. The temporal muscle was reflected and a subtemporal craniotomy was performed without removing the zygomatic arch. A window of approximately 3 mm in diameter was opened at the base of the skull. The main trunk of the left MCA was visible through the window. Endothelial cells in the MCA were focally injured by a photochemical reaction between rose bengal and green illumination (X540 nm, 600,000 Lux). Rose bengal (20 mg/kg) was intravenously dose and then the MCA was exposed to green light for a period of 10 min. During surgery, animals were placed on a heating pad set at 38 C.
Twenty-four hours (±2 hrs.) after thromboembolism, and once daily for the next five days, neurologic deficits were scored according to a modified method described by Ederson et al. (Stroke, 1986, 17: 472-476). A total of “0” indicates no deficit whereas a maximal score of “15” indicates severe deficits.
Each brain was cut into six coronal blocks with a rat brain matrix (2 mm interval). Brains were post-fixed overnight in 4% paraformaldehyde at 3.1-6.2° C., stored in phosphate-buffered saline and sent out for histological processing. Each coronal block was embedded in paraffin. One coronal section from each block was taken and stained with hematoxylin and eosin (HE).
From the HE-stained sections, the infarct areas (mm^2) were manually marked using OsiriX version 8.0.2 (Pixmeo SARL, Bernex, Switzerland). The volume of ischemic infarction (mm^3) was calculated as the […] (six coronal sections per brain). Infarct volumes were calculated in cerebral cortex and basal ganglia. Total infarct volume was calculated by adding the infarct volumes of the basal ganglia and cerebral cortex.
Rats were treated with vehicle (saline), rtPA (10 mg/kg), DC009 (0.007 mg/kg, 15-minute IV infusion) after 1 hours of stroke onset, or DC009 (0.007 mg/kg, 15-minute IV infusion) after 3 hours of stroke onset. (n=10 per treatment group). At 24 hours after drug administration, rats were assessed with a neurological deficit scale (NDS).
24 hours after PIT surgery, rats were euthanized, and brains were processed for […].

Setting [3] is: DC009 0.007 mg/kg, 15-minute IV infusion, 1 hr post-PIT.
The mark [4] stands for this setting: DC009 0.007 mg/kg, 15-minute IV infusion, 3 hr post-PIT.

For `CC(NC(=O)C1CCCN1)C(=O)NC(CCCCN)C(=O)NCCCCC(NC(=O)C1Cc2cc(O)c(O)cc2C(C)(C)N1)C(=O)O` (stereo not drawn) [DC009, 3S-6,7-dihydroxy-1,1-dimethyl-1,2,3,4-tetrahydro-isoquinoline-3-acyl-Lys(Pro-Ala-Lys)], the “infarct volumes (% hemisphere)” value in experiment [1] (DC009 0.0007 mg/kg IV bolus from 24 hours after stroke onset, once daily for 6 days, 7 days after stroke) amounted to 9.95 ± 10.32% hemisphere. In experiment [1] (data from Example 4-6), the “effective dose in the rat Embolic Stroke Model” value is 7 to 70 µg/kg. For the same compound, in experiment [2] (setting [3]), the “infarction volume, Basal ganglia” value is 63.7 ± 10.3 ** mm^3 and the “infarction volume, Cerebral cortex” value is 210.6 ± 26.4 mm^3. In addition, in experiment [2] (setting [4]), the “infarction volume, Basal ganglia” value worked out at 94.8 ± 6.2 mm^3; the “infarction volume, Cerebral cortex” value is 227.7 ± 18.4 mm^3; the “infarction volume, Total” value is reported as 322.5 ± 23.0 mm^3.

Regarding “rtPA: Alteplase (Activase), a recombinant tissue-type plasminogen activator (rtPA) [reference compound]”, the “Mean neurological deficit scores (NDS)” value is recorded as 3.27 ± 1.85 in experiment [1] (rtPA 3 mg/kg IV bolus 6 hours after stroke onset, 6-point scale) and 2.13 ± 1.173 in experiment [1] (rtPA 10 mg/kg IV bolus 3 hours after stroke onset, scale 0-5). Besides, the “infarct volumes (% hemisphere)” value in experiment [1] (rtPA 3 mg/kg IV bolus 6 hours after stroke onset, 24 hours, TTC) is given as 17.90 ± 7.47% hemisphere; in experiment [1] (rtPA 10 mg/kg IV bolus 3 hours after stroke onset, 24 hours, TTC), 12.74 ± 9.02% hemisphere. For the same compound, the “infarction volume, Basal ganglia” value is recorded as 80.7 ± 4.3 mm^3 in experiment [2] (rtPA 10 mg/kg, 1 hr post-PIT) and 87.0 ± 7.0 mm^3 in experiment [2] (rtPA 10 mg/kg, 3 hr post-PIT). Further, the “infarction volume, Cerebral cortex” value in experiment [2] (rtPA 10 mg/kg, 1 hr post-PIT) is recorded as 200.0 ± 18.1 mm^3; in experiment [2] (rtPA 10 mg/kg, 3 hr post-PIT), 173.5 ± 19.4 ** mm^3. Moreover, in experiment [2] (rtPA 10 mg/kg, 3 hr post-PIT), the “infarction volume, Total” value is reported as 260.6 ± 23.9 ** mm^3.
